In BindingDB's records for doi:10.1021/jm00159a020 (1986):

Test: Potency against rat brain adenosine A1 receptor at 10 uM

% displacement at 10 µM: 10%
SMILES: CCCCN(C)C(=O)[C@H]1OC(n2cnc3c(NC(CC)CC)ncnc32)[C@H](O)[C@@H]1O (stereo partly specified)
